Source: paper PMC6009905, “Kushenol A and 8-prenylkaempferol, tyrosinase inhibitors, derived from Sophora flavescens” (Journal of Enzyme Inhibition and Medicinal Chemistry, 2018)
“And” between values parts separate entries of the source, which are not always exact repeats. Equal values may be shown once.

Biological target: tyrosinase
Test: not given
Parameters: method as in PMID 12951485, PMID 18175961
Settings: read-out: IC50 on tyrosinase (previous report); cited from earlier work

| SMILES | IC50 |
| --- | --- |
| C=C(C)[C@H](CC=C(C)C)Cc1c(O)cc(OC)c(C(=O)/C=C/c2ccc(O)cc2O)c1O [kuraridin] | 0.6 µM |
| C=C(C)C(CCC(C)(C)O)Cc1c(O)cc(OC)c(C(=O)/C=C/c2ccc(O)cc2O)c1O (stereo not shown) [kuraridinol] | 0.8 µM |
| C=C(C)[C@H](CC=C(C)C)Cc1c(O)cc(OC)c2c1O[C@H](c1ccc(O)cc1O)CC2=O [kurarinone] | 6.2 µM |
| C=C(C)[C@H](CC=C(C)C)Cc1c(O)cc(O)c2c1O[C@H](c1ccc(O)cc1O)CC2=O [sophoraflavanone G] | 6.6 µM |

Biological target: T1, tyrosinase (Agaricus bisporus, UniProt C7FF04)
Test: Tyrosinase enzyme kinetics (Lineweaver-Burk plots, secondary re-plot)
Format: biochemical
Settings: 0.62-10 mM L-tyrosine
Procedure: Enzyme assay was performed according to the modified methods in the previous papers. For the calculation of inhibitory activity, 130 μL of tyrosinase (about 46 units/mL) solvated in 0.1 mM phosphate buffer (pH: 6.8) and 20 μL of 1–0.0078 mM concentrations of the inhibitors were mixed in a 96-well plate, and then 50 μL of 2 mM L-tyrosine in buffer was added in mixture. To test the enzyme kinetic study, 130 μL of tyrosinase and 20 μL of inhibitor were also mixed, and then 50 μL of 0.62–10 mM L-tyrosine was added in a 96-well plate. The mixture was recorded at UV-Vis 475 nm during 20 min. The inhibitory ratio was calculated according to the following equation: Inhibitory activity rate (%)=100–[(S20–S0/C20–C0]×100 where C20 and S20 are the intensity of control and inhibitor after 20 min, C0 and S0 are the intensity of control and inhibitor at 0 min.
This study confirmed the inhibitory mechanism of compounds 1–4 towards tyrosinase using enzyme kinetics. Enzyme kinetics were performed based on academic methods that examine a variety of substrate concentrations. The results were represented by Lineweaver–Burk plots, which confirmed the inhibition to […]. […]
Target sequence in this assay (C7FF04 2-392): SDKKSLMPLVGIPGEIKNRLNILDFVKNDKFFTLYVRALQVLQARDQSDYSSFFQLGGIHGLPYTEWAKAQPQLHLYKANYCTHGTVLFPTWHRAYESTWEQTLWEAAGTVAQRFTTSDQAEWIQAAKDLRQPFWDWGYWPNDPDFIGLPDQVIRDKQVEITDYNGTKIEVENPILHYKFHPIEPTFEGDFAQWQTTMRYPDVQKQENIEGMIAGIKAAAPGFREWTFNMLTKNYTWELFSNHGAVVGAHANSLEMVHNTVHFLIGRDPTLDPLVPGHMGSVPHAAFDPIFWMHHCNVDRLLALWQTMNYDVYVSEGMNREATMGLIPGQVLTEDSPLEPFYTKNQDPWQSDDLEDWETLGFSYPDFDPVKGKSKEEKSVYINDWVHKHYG

| Binding mode | SMILES |
| --- | --- |
| non-competitive inhibitors | C=C(C)[C@H](CC=C(C)C)Cc1c(O)cc(O)c2c1O[C@H](c1ccccc1O)CC2=O [Compound 1, kushenol A] |
| competitive inhibitor | CC(C)=CCc1c(O)cc(O)c2c(=O)c(O)c(-c3ccc(O)cc3)oc12 [Compound 2, 8-prenylkaempferol] |
| non-competitive inhibitors | C=C(C)C(CC=C(C)C)Cc1c(O)cc(O)c2c(=O)c(O)c(-c3ccc(O)cc3O)oc12 (stereo not shown) [Compound 3, kushenol C] |
| non-competitive inhibitors | COc1ccc(-c2coc3cc(O)ccc3c2=O)cc1 [Compound 4, formononetin] |

Test system: HepG2 cells
Test: Measurement of intracellular ROS in H2O2-treated HepG2 cells
Format: cell-based, Human
Settings: 10 μM inhibitor 1 h, then 2 mM H2O2 30 min; negative control 100.0%, positive control 701.5%
Procedure: Human hepatoma HepG2 cells were cultured in DMEM supplemented with 10% FBS, 100 units/mL of penicillin and 100 μg/mL of streptomycin. Cells were maintained incubation at 37 °C under a 5% CO2[16].
The concentration of intracellular ROS was measured using a carboxy-H2DCFDA probe, as previously described. HepG2 cells were seeded into six-well plates at a density of 1 × 10^5 cells/mL and incubated for 24 h. After treatment with 10 μM concentrations of inhibitors 1–5 for 1 h, H2O2 (2 mM) was added to plates for 30 min. Cells were then incubated with 10 μM carboxy-H2DCFDA for 20 min, then cells were washed and harvested. Cells were immediately examined using a flow cytometer (Cytomics FC500; Beckman, Miami, FL).
To examine their antioxidant activity in vitro, pure compounds 1–5 were added to HepG2 cells, followed by addition of 2 mM H2O2. As shown in Figure 5(A), the respective negative (H2O2: –; I: –) and positive (H2O2: +; I: –) controls generated reactive oxygen species (ROS) of 100.0% ± 9.1% and 701.5% ± 46.9%. […] The viability of HepG2 cells following treatment with all compounds 1–5 at 10 μM ranged from 100.1% ± 6.1% to 103.8% ± 5.1% (Figure S6). Compound 2 caused an […].

| SMILES | ROS generation |
| --- | --- |
| CC(C)=CCc1c(O)cc(O)c2c(=O)c(O)c(-c3ccc(O)cc3)oc12 [Compound 2, 8-prenylkaempferol] | 435.3% ± 43.0% |
| C=C(C)C(CC=C(C)C)Cc1c(O)cc(O)c2c(=O)c(O)c(-c3ccc(O)cc3O)oc12 (stereo not shown) [Compound 3, kushenol C] | 391.7% ± 56.3% |

Test system: not listed separately
Test: ABTS radical assay
Settings: 25 μM; triplicate
Procedure: The ABTS radical cation assay was modified the method of Re et al.[15] Briefly, the mixture of 7.4 mM ABTS solution with 2.6 mM potassium persulfate incubated at room temperature in dark for 24 h. […] Fifty microliter of the inhibitor was reacted with 950 μL of the ABTS solution. Absorbance value was monitored during 10 min at 732 nm using a spectrophotometer. The free radical value (SC50) was calculated by the log-dose inhibition curve. Scavenging activity (%)=[1–(extract absorbance/control absorbance)]×100.

| SMILES | Scavenging activity of compounds on ABTS radical, 25 μM (%) |
| --- | --- |
| O=C1O[C@H]([C@@H](O)CO)C(O)=C1O [Ascorbic acid, reference compound] | 44.9 ± 0.9% |
| C=C(C)[C@H](CC=C(C)C)Cc1c(O)cc(O)c2c1O[C@H](c1ccccc1O)CC2=O [Compound 1, kushenol A] | 93.7 ± 0.3% |
| CC(C)=CCc1c(O)cc(O)c2c(=O)c(O)c(-c3ccc(O)cc3)oc12 [Compound 2, 8-prenylkaempferol] | 93.2 ± 0.2% |
| C=C(C)C(CC=C(C)C)Cc1c(O)cc(O)c2c(=O)c(O)c(-c3ccc(O)cc3O)oc12 (stereo not shown) [Compound 3, kushenol C] | 94.1 ± 0.2% |
| COc1ccc(-c2coc3cc(O)ccc3c2=O)cc1 [Compound 4, formononetin] | 53.3 ± 2.4% |
| CC(C)=CCc1c(O)cc(O)c2c1O[C@H](c1ccc(O)cc1)CC2=O [Compound 5, 8-prenylnaringenin] | 91.5 ± 0.1% |

Same assay, conditions: log-dose inhibition curve; triplicate; read-out: Scavenging activity of compounds on ABTS radical, SC50

| IC50 | SMILES |
| --- | --- |
| 27.8 ± 0.5 µM | O=C1O[C@H]([C@@H](O)CO)C(O)=C1O [Ascorbic acid, reference compound] |
| 9.7 ± 0.1 µM | C=C(C)[C@H](CC=C(C)C)Cc1c(O)cc(O)c2c1O[C@H](c1ccccc1O)CC2=O [Compound 1, kushenol A] |
| 7.9 ± 0.3 µM | CC(C)=CCc1c(O)cc(O)c2c(=O)c(O)c(-c3ccc(O)cc3)oc12 [Compound 2, 8-prenylkaempferol] |
| 4.9 ± 0.3 µM | C=C(C)C(CC=C(C)C)Cc1c(O)cc(O)c2c(=O)c(O)c(-c3ccc(O)cc3O)oc12 (stereo not shown) [Compound 3, kushenol C] |
| 22.8 ± 1.1 µM | COc1ccc(-c2coc3cc(O)ccc3c2=O)cc1 [Compound 4, formononetin] |
| 7 ± 0.2 µM | CC(C)=CCc1c(O)cc(O)c2c1O[C@H](c1ccc(O)cc1)CC2=O [Compound 5, 8-prenylnaringenin] |

Biological target: T1, tyrosinase
Test: Tyrosinase assay (conversion of L-tyrosine to L-DOPA, UV-Vis 475 nm)
Format: biochemical
Parameters: purchased Sigma-Aldrich T3824
Settings: 100 μM inhibitor; L-tyrosine substrate; triplicate; read-out: Inhibitory activity of compounds on tyrosinase, 100 μM (%)
Procedure: Enzyme assay was performed according to the modified methods in the previous papers. For the calculation of inhibitory activity, 130 μL of tyrosinase (about 46 units/mL) solvated in 0.1 mM phosphate buffer (pH: 6.8) and 20 μL of 1–0.0078 mM concentrations of the inhibitors were mixed in a 96-well plate, and then 50 μL of 2 mM L-tyrosine in buffer was added in mixture. To test the enzyme kinetic study, 130 μL of tyrosinase and 20 μL of inhibitor were also mixed, and then 50 μL of 0.62–10 mM L-tyrosine was added in a 96-well plate.
Target sequence in this assay (C7FF04 1-392 limits assumed): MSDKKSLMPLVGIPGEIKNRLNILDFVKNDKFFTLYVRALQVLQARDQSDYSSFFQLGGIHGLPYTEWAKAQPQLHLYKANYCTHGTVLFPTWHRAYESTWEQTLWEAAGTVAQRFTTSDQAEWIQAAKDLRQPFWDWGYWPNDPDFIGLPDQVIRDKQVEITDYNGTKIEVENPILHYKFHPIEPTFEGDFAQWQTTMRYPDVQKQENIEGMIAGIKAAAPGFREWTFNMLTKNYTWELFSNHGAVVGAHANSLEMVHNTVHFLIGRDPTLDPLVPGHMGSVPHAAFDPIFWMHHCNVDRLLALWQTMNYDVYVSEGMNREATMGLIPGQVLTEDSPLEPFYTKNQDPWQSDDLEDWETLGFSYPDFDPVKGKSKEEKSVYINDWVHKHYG

| inhibition at 100 µM | SMILES |
| --- | --- |
| 101 ± 3.3% | C=C(C)[C@H](CC=C(C)C)Cc1c(O)cc(O)c2c1O[C@H](c1ccccc1O)CC2=O [Compound 1, kushenol A] |
| 90.4 ± 3% | CC(C)=CCc1c(O)cc(O)c2c(=O)c(O)c(-c3ccc(O)cc3)oc12 [Compound 2, 8-prenylkaempferol] |
| 81.1 ± 0.1% | C=C(C)C(CC=C(C)C)Cc1c(O)cc(O)c2c(=O)c(O)c(-c3ccc(O)cc3O)oc12 (stereo not shown) [Compound 3, kushenol C] |
| 91.9 ± 2% | COc1ccc(-c2coc3cc(O)ccc3c2=O)cc1 [Compound 4, formononetin] |
| 27 ± 2.9% | CC(C)=CCc1c(O)cc(O)c2c1O[C@H](c1ccc(O)cc1)CC2=O [Compound 5, 8-prenylnaringenin] |

Same assay, conditions: L-tyrosine substrate; triplicate; read-out: Inhibitory activity of compounds on tyrosinase, IC50

| IC50 | SMILES |
| --- | --- |
| < 10 µM and 1.1 µM | C=C(C)[C@H](CC=C(C)C)Cc1c(O)cc(O)c2c1O[C@H](c1ccccc1O)CC2=O [Compound 1, kushenol A] |
| < 10 µM and 2.4 µM | CC(C)=CCc1c(O)cc(O)c2c(=O)c(O)c(-c3ccc(O)cc3)oc12 [Compound 2, 8-prenylkaempferol] |
| 24.1 ± 2.3 µM | C=C(C)C(CC=C(C)C)Cc1c(O)cc(O)c2c(=O)c(O)c(-c3ccc(O)cc3O)oc12 (stereo not shown) [Compound 3, kushenol C] |
| 19.9 ± 1.7 µM | COc1ccc(-c2coc3cc(O)ccc3c2=O)cc1 [Compound 4, formononetin] |
